Values quoted from earlier work in patent US20150325856A1, “ENVIRONMENTALLY FRIENDLY INKJET-PRINTABLE LITHIUM BATTERY CATHODE FORMULATIONS, METHODS AND DEVICES” (NEW JERSEY INSTITUTE OF TECHNOLOGY, priority 2014, published 2015).
Where two headings read alike, the source gives them in different places.

How the values were obtained:
rats [1] = details: heads only
rabbits [2] = details: Ansell and Fowler, as cited in WHO 2001
[3] = test system: rats, mice, guinea-pigs and rabbits
rabbits [4] = test system: rabbits
rats [5] = details: whole body exposure

Q: What does the source list for CN1CCCC1=O [NMP, N-methyl-pyrrolidone]?
A: Inhalation LC50 (rats [1]): (5100 mg/m^3); Inhalation LC50 (rats [1]; BASF, 1988, as cited in WHO 2001): >5.1 µg/mL; Primary Skin Irritation (rabbits [2]): Practically non-; Tox. Cat. (oral LD50) ([3]; oral): (Tox. Cat. III-IV); Oral LD50 ([3]; rats, mice, guinea-pigs and rabbits, Ansell and Fowler, 1988, as cited in WHO 2001): 3900 to 7900 mg/kg; Primary Eye Irritation, recovery (rabbits [4]): recovered after 21 days post dosing; Primary Eye Irritation (rabbits [4]; causing corneal opacity, iritis and conjunctivitis, Ansell and Fowler, as cited in WHO 2001): Moderate (causing; Inhalation LC50 (rats [5]): (1700 mg/m^3); Inhalation LC50 (rats [5]; E. I. DuPont de Nemours & Co. 1977, as cited in WHO 2001): =1.7 mg/L; Tox. Cat. (dermal LD50) (rats and rabbits; dermal): (Tox. Cat. III-IV); Dermal LD50 (rats and rabbits; rats and rabbits, Bartsch et al., as cited in WHO 2001, Wallen 1992): 4000-10,000 mg/kg
